In patent publication US10174005B2, “Fused pyrimidines as inhibitors of p97 complex” (Cleave Biosciences, Inc., priority 2014, dated 2019):

Key:
[1] = test system: Caco-2 cells
[2] = target: p97 (Homo sapiens, UniProt P55072); assay: P97 ATPase biochemical assay (ADP Glo); conditions: 20 nM p97, 20 μM ATP, 37° C. for 15 minutes
Description: The ATPase assay is performed according the following protocol: Purified enzyme (20 nM p97), substrate (20 μM ATP) and a dose titration of compounds are mixed in buffer (50 mM TRIS pH 7.5, 20 mM MgCl2, 0.02% TX-100, 1 mM DTT, 0.2% (v/v) glycerol) and incubated at 37° C. for 15 minutes. The reaction is terminated and the level of product generated is measured using the ADP Glo Assay Kit (Promega, Madison Wis.). Plotting product generated versus compound concentration and using a four-parameter fit model generates an IC50 value for each compounds.
The p97 assay is an initial screening assay used to determine inhibitory activity of the fused pyrimidine compounds of the invention against the p97 complex. As discussed above, inhibition of activity of the p97 proteosome complex can enable apoptosis and cause elimination of neoplastic cells (cancer cells). The method follows that of Christianson in Nat. Cell Biol., (2011) 14:93.
Assay Buffer is a mixture of 50 mM TRIS pH 7.5, 20 mM MgCl2, 0.02% TX-100, 1 mM DTT and 0.2% (v/v) Glycerol. The well plate is Platetype: Corning 3674, 384w plate. The identification kit is an ADP glo kit (Promega): stop buffer, detection reagent.
Serial dilute compound in DMSO in a 1:3.33-fold 10 point serial dilution.
in each well of 384w plate add the following reagents:
0.5 μL compound serial diluted in DMSO (Final Conc. 10%)
2 μL ATP (Final Conc.=20 uM, diluted in assay buffer)
2.5 μL p97 (Final Conc.=20 nM, diluted in assay buffer)
Incubate at 37 deg C. for 15 min.
Add 5 μL of stop buffer, incubate at RT for 40 min.
Add 10 μL of detection reagent, incubate at RT for 30 min.
Read luminescence on Envision plate reader.
Upon obtaining the data from the luminescence reading, the data may be analyzed as follows:
Normalize luminescence data using no enzyme (full inhibition) and no compound (no inhibition) controls. Plot normalized luminescence data against log-transformed concentration values and fit to a sigmoidal curve to determine IC50 values (done in Collaborative Drug Discovery software).

[3] = test system: A549 cells; assay: Cultured cancer cell viability assay (cell titer glo, CTG) in A549 cells; assay type: cell-based; conditions: Homo sapiens; A549 cells, 72 hr incubation, cell titer glo; read-out: A549 CTG IC50
From the text: Anti-tumor effects are monitored in cultured cancer cells after several days of compound treatment. The cell titer glo assay (Promega) measures the amount of ATP present as a proxy for cellular viability. Cellular counting is done using high-content microscopy followed by image analysis. A hanging drop 3D-culture system (3D Biomatrix) is used followed by cell titer glo to measure growth in a tumor-like environment.
The cellular assay provides information about the anti-neoplastic activity of the compounds of the invention. The compounds are tested against cultured cancer cells to determine whether or not the compounds of the invention are capable of intersecting with cancer cells to minimize or eliminate such cells. The assay involves establishing colonies of such cells and then treating them with the test compound under specified conditions and analysis regima to determine results.
(§1) Cell Plating: • Seed cells ˜16 hrs prior to compound treatment • Plate 25 μL of A549 cells in every well of 384-well plate using multidrop. • Two (2) black plates for IF at 2500 cells/well • Let plate sit at room temp for 10-15 minutes prior to putting in incubator to • allow cells to stick in middle of plate. • One (1) white plate for viability at 500 cells/well.
(§2) Day 2 Treatment of Cultured Cells with Test Compounds • Treat Cells: • Serial dilute compounds with a 10 point 2-fold serial dilution in DMSO to make 250× stock compound solution • Dilute compounds 1:125 in cell culture media to make a 2× solution Add • 25 μl of dilution compounds to cell plates in well duplicates Put cells back in incubator (6 hr incubation for black plates, 72 hr incubation for white plates).
Viability Assay: • Thaw an aliquot of frozen cell titer glo (Promega G7572) at room temperature. • Add 45 mL of NaCl/PBS solution to 5 ml of cell titer glo (10×). • Remove white plates from incubator, leave at room temp for 30 minutes. • Add 25 μl of diluted cell titer glo to each well. • Shake plate for >1 minute. • Incubate plate for >5 minutes to stabilize luminescence. • Luminescence is stable for up to 3 hours. • Read luminescence on plate reader

[4] = test system: K48-Ub (lysine-48 chain linkage of poly-ubiquitin) in A549 cells; assay: A549 K48-Ub accumulation, immunofluorescence high-content imaging; assay type: cell-based; conditions: Homo sapiens, 6 hr incubation
Description: Image-analysis is used to generate quantitative data from these assays that can be fit to a four-parameter sigmoid curve to derive IC50 values. Substrates of the ubiquitin-proteasome system, such as p53, are monitored after tumor cell lines are incubated with compounds for several hours. Accumulation of these proteins indicates an inhibition of proteasome-mediated degradation. Accumulation of lysine-48 chain linkage of poly-ubiquitin is also monitored by immunofluorescence as an indicator of ubiquitin-proteasome system inhibition. Both LC3 and SQSTM1 are mediators of autophagy. The localization and amounts of these proteins are monitored by immunofluorescence and report on the activity and inhibition of autophagy in response to p97 inhibition.
as §1, §2
Fix/Stain Black Plates: • Incubate cells in black plates with compound at 37 deg C. for 6 hrs. add 15 μL of 16% Paraformaldehyde (PFA) directly into media of each well, incubate at room temp for 5 min, flick plate and wash in 50 μL of PBS block in 50 μL of Blocking Buffer for 30 minutes (can go up to several hours) • Blocking buffer: 1×PBS, 1% BSA, 0.3% Triton-X 100, Hoechst (1:10,000) incubate in 25 μL of primary antibody in blocking buffer at 4 deg C. over night
Secondary Antibodies: • AlexaFluor488 Goat anti-Rabbit 1:2,000 (Life Tech A11008) • AlexaFluor555 Goat anti-Mouse 1:2.000 (Life Tech A21422)
Day 3/4 • Black Plate Staining (cont): • wash black plates 3× in 50 μL PBS (˜5 min each) incubate in 25 μl of secondary antibody (1:2,000) in blocking buffer for 1-2 hrs at room temp (alexafluor488-anti-Rabbit/alexafluor555-anti-Mouse) • wash 4× in 50 μL PBS (˜5 min each) • leave plates in PBS for imaging • clean bottom of plates with 70% EtOH
Imaging: • Image plates in high content microscope with 405 nm, 488 nm and 555 nm filters
Data Analysis: • Nuclear counts and cellular intensities of each markers are measured using Hoechst as a nuclear marker with an automated image analysis protocol using Matlab software (Math Works)

Chain of p97 (P55072 whole entry): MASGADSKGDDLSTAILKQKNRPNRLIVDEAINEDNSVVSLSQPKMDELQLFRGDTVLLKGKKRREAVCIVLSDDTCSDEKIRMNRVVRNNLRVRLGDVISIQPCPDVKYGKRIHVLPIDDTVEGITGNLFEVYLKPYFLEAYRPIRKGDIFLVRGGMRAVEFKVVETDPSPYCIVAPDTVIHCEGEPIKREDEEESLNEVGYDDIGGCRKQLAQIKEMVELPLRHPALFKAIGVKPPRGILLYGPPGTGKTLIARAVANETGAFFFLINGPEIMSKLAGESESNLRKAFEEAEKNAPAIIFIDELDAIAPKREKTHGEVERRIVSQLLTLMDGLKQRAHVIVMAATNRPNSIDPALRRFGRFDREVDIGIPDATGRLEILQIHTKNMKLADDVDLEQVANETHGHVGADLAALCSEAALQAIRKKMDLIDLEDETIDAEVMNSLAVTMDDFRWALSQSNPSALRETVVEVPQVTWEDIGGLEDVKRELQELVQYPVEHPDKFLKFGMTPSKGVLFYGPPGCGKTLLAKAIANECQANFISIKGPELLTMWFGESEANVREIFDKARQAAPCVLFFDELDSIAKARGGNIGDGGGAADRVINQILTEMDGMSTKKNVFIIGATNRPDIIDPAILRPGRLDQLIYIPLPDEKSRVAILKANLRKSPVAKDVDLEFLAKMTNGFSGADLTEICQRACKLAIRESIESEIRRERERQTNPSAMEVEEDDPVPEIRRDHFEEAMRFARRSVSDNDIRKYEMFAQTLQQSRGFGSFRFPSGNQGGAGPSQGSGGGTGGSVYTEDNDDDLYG

SMILES	Peff A B, Range ([1]; pH 7.4 Caco-2, A to B)	Peff B A, Range ([1]; pH 7.4 Caco-2, B to A)	IC50 [2] [µM]	IC50 [3] [µM]	IC50 [4] [µM]
Cc1[nH]c2c(C(N)=O)cccc2c1-c1nc2c(c(NCc3ccccc3)n1)CCCC2 [FF05, 3-(4-(benzylamino)-5,6,7,8-tetrahydroquinazolin-2-yl)-2-methyl-1H-indole-7-carboxamide]	–	–	< 0.03	< 3	< 3
Cc1cc2c(C(N)=O)cccc2n1-c1nc2c(c(NCc3ccccc3)n1)CCCN2 [FF07, 1-(4-(benzylamino)-5,6,7,8-tetrahydropyrido[2,3-d]pyrimidin-2-yl)-2-methyl-1H-indole-4-carboxamide]	–	–	< 0.03	< 1	< 1
Cc1cc2c(C(N)=O)cccc2n1-c1nc2c(c(NCc3cccc(F)c3)n1)N(C)CCC2 [FF12, 1-(4-((3-fluorobenzyl)amino)-5-methyl-5,6,7,8-tetrahydropyrido[3,2-d]pyrimidin-2-yl)-2-methyl-1H-indole-4-carboxamide]	–	–	< 0.03	< 1	< 1
Cc1cc2c(C(N)=O)cccc2n1-c1nc(NCc2cccc(F)c2)c2c(n1)OCCC2 [FF09, 1-(4-((3-fluorobenzyl)amino)-6,7-dihydro-5H-pyrano[2,3-d]pyrimidin-2-yl)-2-methyl-1H-indole-4-carboxamide]	–	–	< 0.03	< 1	< 1
Cc1cc2c(C(N)=O)cccc2n1-c1nc(NCc2ccccc2)c2c(n1)OCCC2 [FF06, 1-(4-(benzylamino)-6,7-dihydro-5H-pyrano[2,3-d]pyrimidin-2-yl)-2-methyl-1H-indole-4-carboxamide]	–	–	< 0.03	< 1	< 1
Cc1cc2c(C(N)=O)cccc2n1-c1nc2c(c(NCc3ccccc3)n1)CCCCC2 [FF18, 1-(4-(benzylamino)-6,7,8,9-tetrahydro-5H-cyclohepta[d]pyrimidin-2-yl)-2-methyl-1H-indole-4-carboxamide]	–	–	< 0.03	< 1	< 3
COc1nc2c(C(N)=O)cccc2n1-c1nc2c(c(NCc3ccccc3)n1)CCCN2 [FF23, 1-(4-(benzylamino)-5,6,7,8-tetrahydropyrido[2,3-d]pyrimidin-2-yl)-2-methoxy-1H-benzo[d]imidazole-4-carboxamide]	–	–	< 0.03	< 3	< 3
NC(=O)c1cccc2c1cnn2-c1nc2c(c(NCc3ccccc3)n1)CCCC2 [FF03, 1-(4-(benzylamino)-5,6,7,8-tetrahydroquinazolin-2-yl)-1H-indazole-4-carboxamide]	–	–	< 0.03	< 1	< 1

Results, then the compound that gave them:

Peff A B, Range ([1]; pH 7.4 Caco-2, A to B)	Peff B A, Range ([1]; pH 7.4 Caco-2, B to A)	IC50 [2] [µM]	IC50 [3] [µM]	IC50 [4] [µM]	SMILES
18.50-36.80 × E-6 cm/sec	16.30-31.40 × E-6 cm/sec	–	–	–	CC(C)NCC(O)COc1cccc2ccccc12 (centres unmarked) [Propranolol]
–	–	< 0.03	< 3	< 3	Cc1cc2c(C(N)=O)cccc2n1-c1nc2c(c(NCc3cccc(F)c3)n1)CCCN2 [FF26, 1-(4-((3-fluorobenzyl)amino)-5,6,7,8-tetrahydropyrido[2,3-d]pyrimidin-2-yl)-2-methyl-1H-indole-4-carboxamide]
–	–	< 0.03	< 3	< 3	Cc1cc2c(C(N)=O)cccc2n1-c1nc(NCc2cc(F)cc(F)c2)c2c(n1)OCCC2 [FF30, 1-(4-((3,5-difluorobenzyl)amino)-6,7-dihydro-5H-pyrano[2,3-d]pyrimidin-2-yl)-2-methyl-1H-indole-4-carboxamide]
–	–	< 0.1	< 3	< 3	NC(=O)c1cccc2c1cnn2-c1nc(NCc2ccccc2)c2c(n1)OCCC2 [FF28, 1-(4-(benzylamino)-6,7-dihydro-5H-pyrano[2,3-d]pyrimidin-2-yl)-1H-indazole-4-carboxamide]
–	–	< 0.03	< 3	< 3	Cc1oc2c(C(N)=O)cccc2c1-c1nc2c(c(NCc3ccccc3)n1)CCCC2 [FF35, 3-(4-(benzylamino)-5,6,7,8-tetrahydroquinazolin-2-yl)-2-methylbenzofuran-7-carboxamide]
–	–	< 0.1	< 3	< 3	Cc1[nH]c2c(C(N)=O)cccc2c1-c1nc(NCc2ccccc2)c2c(n1)OCCC2 [FF27, 3-(4-(benzylamino)-6,7-dihydro-5H-pyrano[2,3-d]pyrimidin-2-yl)-2-methyl-1H-indole-7-carboxamide]
–	–	< 0.03	< 3	< 3	Cc1cc2c(C(N)=O)cccc2n1-c1nc(NCc2ccccc2)c2c(n1)N(C)CCC2 [FF29, 1-(4-(benzylamino)-8-methyl-5,6,7,8-tetrahydropyrido[2,3-d]pyrimidin-2-yl)-2-methyl-1H-indole-4-carboxamide]
–	–	< 0.03	< 1	< 1	Cc1cc2c(C(N)=O)cccc2n1-c1nc2c(c(NCc3ccccc3)n1)NCCC2 [FF34, 1-(4-(benzylamino)-5,6,7,8-tetrahydropyrido[3,2-d]pyrimidin-2-yl)-2-methyl-1H-indole-4-carboxamide]
